From US10828305B2 (SHANGHAI PHARMACEUTICALS HOLDING CO., LTD., priority 2016, dated 2020)

Assays:
[1] = system: BT-474; assay: Proliferation inhibition assay in vitro, BT-474 (CellTiter-Glo); type: cell-based; conditions: Homo sapiens, 72 hours, read-out: IC50(nM) cell BT-474
Procedure: (§1) Proliferation Inhibition Assay In Vitro of Cell Lines
(§2) 1. Cell culture and inoculation: on the first day of the experiment, normal cultured cells were taken in the exponential growth phase, the cells were dispersed by digesting, then the cell density was adjusted to 8.8×10^4 cells/mL for BT-474 and 6.6×10^4 cells/mL for N87, 90 μl of which were inoculated to each well in a 96-well cell culture plate; after inoculation, the microplate was placed at condition of 37° C., 5% CO2 overnight. 2. Dosing to cells: on the second day of the experiment, the microplate was taken out from incubator, […], of 10× compound was separately added to each well of the microplate, 2 duplicated wells were set for each concentration, 9 dosing concentrations were set for each compound. According to different cell lines, the initial concentration of each compound was different. Upon completion of addition, the microplate was placed at condition of 37° C., 5% CO2 for 72 hours. 3. Data acquisition: the microplate was taken out from the incubator and allowed to stand at room temperature to equilibrate for 30 minutes. 100 μl CellTiter-Glo® Luminescent Cell Viability Assay reaction solution which had been equilibrated at room temperature was added to each well and the microplate was shaken at 1300 rpm for 2 minutes at room temperature. The microplate was centrifuged at 2000 rpm for 1 minute in a HERAEUS Multifuge X1R and then allowed to equilibrate at room temperature for 10 minutes. The […] signal was measured on EnVision™.

[2] = target: EGFR kinase (Homo sapiens, UniProt P00533); assay: Enzymatic experiment on EGFR (HTRF kinEASE-TK); type: biochemical; conditions: ATP 1.65 μM; read-out: Kinase IC50 (nM) in vitro EGFR
Procedure: (§3) Enzymatic Experiment on EGFR/ErbB2
(§4) Firstly, preparing 1× reaction buffer required for the kinase, 5× Enzymatic buffer (HEPES 20 mM pH7.0, NaN3 0.1%, BSA 0.05%, sodium orthovanadate 0.5 mM) in the HTRF kinEASE-TK kit was diluted to 1 time with deionized water, 50 nM Supplement Enzymatic buffer (SEB reagent), 1 mM MnCl2, 5 mM MgCl2 and 1 mM DTT were added. Secondly, preparing 5× compound, 10 mM test compound stock solution was diluted in multiple steps with DMSO in a 96-well compound plate to prepare 100× compound as initial concentration, which was then used as the first concentration to perform a 3-fold gradient dilution with DMSO to obtain 10 concentrations. Afterwards, 1 μl gradient dilution was added to 19 μl 1× reaction buffer to prepare 5× compound for use. Then 2 μl 5× compound was transferred from the 96 well plate into a 384-well plate. To the compound-free control wells was added with 2 μl the following liquid: 19 μl 1× reaction buffer with addition of 1 μl DMSO. To the blank control wells was added 2 μl 250 mM EDTA. The third step was enzymatic reaction, the kinase, substrate (TK Substrate-biotin) and ATP were formulated into 2.5× enzyme/substrate mixture and 2.5×ATP solution using 1× reaction buffer respectively. The final concentration of ErbB2 kinase was 0.06 ng/μl, the final concentration of ATP was 4 μM; the final concentration of EGFR kinase was 0.06 units/μl, the final concentration of ATP was 1.65 μM; 4 μl 2.5× enzyme/substrate mixture was added to a 384-well plate, which was incubated at room temperature for 5 minutes; 4 μl 2.5×ATP solution was added to each well and the mixture was allowed to react for 30 minutes at room temperature. The fourth step was termination of the reaction, HTRF Detection buffer was used to prepare a mixture of 2×TK Antibody-Eu(K) and Sa-XL665, the amount of TK Antibody-Eu(K) was 5 μl per well. After the enzymatic reaction was performed for 30 minutes, 10 μl of the above liquid was added to the 384-well plate and the mixture was allowed to react at room temperature for 1 hour. The data was measured on EnVision™, the laser of 337 nm wavelength was selected as the excitation light, RFU665 nM and RFU620 nM were measured, and […]/RFU620 nM×10000 was used as the final data for analysis.

[3] = system: N87; assay: Proliferation inhibition assay in vitro, N87 (CellTiter-Glo); type: cell-based; conditions: Homo sapiens; 72 hours; read-out: IC50(nM) cell N87
Procedure: as §1, §2

[4] = target: ErbB2 kinase (Homo sapiens, UniProt P04626); assay: Enzymatic experiment on ErbB2 (HTRF kinEASE-TK); type: biochemical; conditions: ATP 4 μM; read-out: Kinase IC50 (nM) in vitro ErbB2
Procedure: as §3, §4

Sequence of ErbB2 kinase (P04626 23-1255): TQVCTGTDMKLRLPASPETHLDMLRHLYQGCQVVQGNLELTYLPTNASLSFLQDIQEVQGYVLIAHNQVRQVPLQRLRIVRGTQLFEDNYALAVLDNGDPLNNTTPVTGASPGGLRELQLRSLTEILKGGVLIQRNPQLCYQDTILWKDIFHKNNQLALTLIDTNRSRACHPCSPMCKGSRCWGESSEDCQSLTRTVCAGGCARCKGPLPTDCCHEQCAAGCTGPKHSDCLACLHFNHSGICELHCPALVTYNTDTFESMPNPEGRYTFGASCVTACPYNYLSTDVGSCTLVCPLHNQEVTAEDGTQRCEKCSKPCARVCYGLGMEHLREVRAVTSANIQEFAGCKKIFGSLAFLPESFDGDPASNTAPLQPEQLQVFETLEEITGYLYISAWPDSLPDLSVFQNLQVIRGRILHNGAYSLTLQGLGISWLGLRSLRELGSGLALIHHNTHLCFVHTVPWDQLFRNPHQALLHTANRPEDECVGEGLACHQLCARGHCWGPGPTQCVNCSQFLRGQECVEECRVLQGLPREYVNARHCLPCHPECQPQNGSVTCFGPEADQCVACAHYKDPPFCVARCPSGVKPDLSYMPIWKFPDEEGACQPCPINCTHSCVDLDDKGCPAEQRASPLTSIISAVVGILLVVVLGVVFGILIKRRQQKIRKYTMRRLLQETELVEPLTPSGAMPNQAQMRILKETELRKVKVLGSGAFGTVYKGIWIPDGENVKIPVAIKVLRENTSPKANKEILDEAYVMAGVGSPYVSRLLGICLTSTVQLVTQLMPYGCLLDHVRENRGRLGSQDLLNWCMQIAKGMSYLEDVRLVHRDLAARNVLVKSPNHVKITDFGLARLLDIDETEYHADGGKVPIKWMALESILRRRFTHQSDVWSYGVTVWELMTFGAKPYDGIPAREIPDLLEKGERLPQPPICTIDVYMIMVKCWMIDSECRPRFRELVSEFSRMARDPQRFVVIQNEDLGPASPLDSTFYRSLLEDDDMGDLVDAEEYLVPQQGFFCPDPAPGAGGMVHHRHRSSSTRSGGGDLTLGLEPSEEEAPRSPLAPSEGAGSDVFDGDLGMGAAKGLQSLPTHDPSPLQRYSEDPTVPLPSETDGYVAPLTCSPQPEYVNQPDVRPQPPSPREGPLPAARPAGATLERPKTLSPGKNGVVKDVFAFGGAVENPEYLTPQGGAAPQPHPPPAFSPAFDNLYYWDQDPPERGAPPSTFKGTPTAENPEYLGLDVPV
Sequence of EGFR kinase (P00533 25-1210): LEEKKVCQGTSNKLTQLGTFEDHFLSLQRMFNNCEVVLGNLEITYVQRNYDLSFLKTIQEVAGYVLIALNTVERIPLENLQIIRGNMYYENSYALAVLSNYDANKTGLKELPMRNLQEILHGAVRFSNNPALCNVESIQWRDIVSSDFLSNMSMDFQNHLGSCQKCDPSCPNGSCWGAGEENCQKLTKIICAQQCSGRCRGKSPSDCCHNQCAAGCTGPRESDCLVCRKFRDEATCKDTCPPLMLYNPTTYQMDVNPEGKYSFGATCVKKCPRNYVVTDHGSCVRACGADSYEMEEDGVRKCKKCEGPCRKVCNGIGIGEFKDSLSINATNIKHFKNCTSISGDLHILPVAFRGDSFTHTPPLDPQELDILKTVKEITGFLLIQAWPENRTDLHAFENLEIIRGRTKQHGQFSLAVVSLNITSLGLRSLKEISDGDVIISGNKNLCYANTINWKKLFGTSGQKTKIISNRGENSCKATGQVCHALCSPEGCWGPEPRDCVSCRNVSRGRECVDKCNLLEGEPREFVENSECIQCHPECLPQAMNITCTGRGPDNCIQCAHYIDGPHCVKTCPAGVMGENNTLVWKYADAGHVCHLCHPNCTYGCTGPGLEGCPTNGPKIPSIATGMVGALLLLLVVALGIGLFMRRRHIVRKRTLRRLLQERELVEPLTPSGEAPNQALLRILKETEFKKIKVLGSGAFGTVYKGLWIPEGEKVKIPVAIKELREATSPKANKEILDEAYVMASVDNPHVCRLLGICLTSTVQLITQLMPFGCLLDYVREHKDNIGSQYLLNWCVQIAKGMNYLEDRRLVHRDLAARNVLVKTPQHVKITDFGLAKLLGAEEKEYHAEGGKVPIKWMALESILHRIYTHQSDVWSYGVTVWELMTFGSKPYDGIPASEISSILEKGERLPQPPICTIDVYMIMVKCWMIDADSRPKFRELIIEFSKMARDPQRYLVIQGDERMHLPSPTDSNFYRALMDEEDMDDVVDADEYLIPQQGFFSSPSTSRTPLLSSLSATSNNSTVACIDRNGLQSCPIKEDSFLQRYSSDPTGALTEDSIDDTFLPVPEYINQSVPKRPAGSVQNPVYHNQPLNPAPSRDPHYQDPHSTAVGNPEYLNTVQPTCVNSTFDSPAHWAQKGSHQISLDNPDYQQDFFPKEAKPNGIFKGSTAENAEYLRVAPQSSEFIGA

| IC50 [1] [nM] | IC50 [2] [nM] | IC50 [4] [nM] | SMILES | IC50 [3] [nM] |
| --- | --- | --- | --- | --- |
| 45 | 164 | 8.1 | Cc1cc(Nc2ncnc3ccc(NC4=N[C@H](C)CO4)cc23)ccc1Oc1cc2nncn2cn1 [Embodiment 7, (R)—N^4-(4-([1,2,4]triazolo[4,3-c]pyrimidin-7-yloxy)-3-methylphenyl)-N^6-(4-methyl-4,5-dihydrooxazol-2-yl)quinazoline-4,6-diamine] | 71 |
| 43.4 | 115 | 7.8 | Cc1cc(Nc2ncnc3ccc(NC4=N[C@@H](C)CO4)cc23)ccc1Oc1cc2nncn2cn1 [Embodiment 8] | 68.7 |
| 33.4 | 35.9 | 7.4 | Cc1cc(Nc2ncnc3ccc(NC4=NC(C)(C)CS4)cc23)ccc1Oc1cc2nncn2cn1 [Embodiment 9, N^4-(4-([1,2,4]triazolo[4,3-c]pyrimidin-7-yloxy)-3-methylphenyl)-N^6-(4,4-dimethyl-4,5-dihydrothiazol-2-yl)quinazoline-4,6-diamine] | 39.5 |
| 92.3 | 143 | 12.6 | Cc1cc(Nc2ncnc3ccc(NC(=O)N4CCN(C)CC4)cc23)ccc1Oc1cc2nncn2cn1 [Embodiment 10, N-(4-((4-([1,2,4]triazolo[4,3-c]pyrimidin-7-yloxy)-3-methylphenyl)amino)quinazolin-6-yl)-4-methylpiperazine-1-carboxamide] | 200 |
| 136 | 231 | 4.3 | Cc1cc(Nc2ncnc3ccc(NC(=S)NC(C)(CO)CO)cc23)ccc1Oc1cc2nncn2cn1 [Embodiment 12, 1-(4-((4-([1,2,4]triazolo[4,3-c]pyrimidin-7-yloxy)-3-methylphenyl)amino)quinazoline-6-yl)-3-(1,3-dihydroxy-2-methylpropan-2-yl)thiourea] | 482 |
| 47.9 | 15.2 | 2.6 | Cc1cc(Nc2ncnc3ccc(NC4=NC(C)(CO)CO4)cc23)ccc1Oc1cc2nncn2cn1 (stereo not shown) [Embodiment 13, (2-((4-((4-([1,2,4]triazolo[4,3-c]pyrimidin-7-yloxy)-3-methylphenyl)amino)quinazolin-6-yl)amino)-4-methyl-4,5-dihydrooxazol-4-yl)methanol] | 204 |
| 35.2 | 115 | 1.7 | COCC(=O)NC/C=C/c1ccc2ncnc(Nc3ccc(Oc4cc5nncn5cn4)c(C)c3)c2c1 [Embodiment 14, 2-methoxy-N-((E)-3-(4-(3-methyl-4-([1,2,4]triazolo[4,3-c]pyrimidin-7-yloxy)anilino)-6-quinazolinyl)allyl)acetamide] | 94.1 |
| 17.4 | 14.9 | 1.2 | Cc1cc(Nc2ncnc3ccc(-c4ccc(CNCCS(C)(=O)=O)o4)cc23)ccc1Oc1cc2nncn2cn1 [Embodiment 15, N-(4-([1,2,4]triazolo[4,3-c]pyrimidin-7-yloxy)-3-methylphenyl)-6-(5-(((2-(methylsulfonyl)ethyl)amino)methyl)furan-2-yl)quinazolin-4-amine] | 33.2 |
| 7.7 | 32.3 | 3.4 | C=C(F)C(=O)Nc1ccc2ncnc(Nc3ccc(Oc4cc5nncn5cn4)c(C)c3)c2c1 [Embodiment 16, N-(4-((4-([1,2,4]triazolo[4,3-c]pyrimidin-7-yloxy)-3-methylphenyl)amino)quinazolin-6-yl)-2-fluoroacrylamide] | 5.6 |
| 304 | 80.9 | 7.9 | Cc1cc(Nc2ncnc3ccc(NC(=O)CC(C)(C)O)cc23)ccc1Oc1cc2nncn2cn1 [Embodiment 17, N-(4-((4-([1,2,4]triazolo[4,3,c]pyrimidin-7-yloxy)-3-methylphenyl)amino)quinoline-6-yl)-3-hydroxy-3-methylbutanamide] | 712 |
| 98.2 | 22.1 | 3.3 | CC1(C)COC(Nc2ccc3ncnc(Nc4ccc(Oc5cc6nncn6cn5)c(F)c4)c3c2)=N1 [Embodiment 19, N^4-(4-([1,2,4]triazolo[4,3-c]pyrimidin-7-yloxy)-3-fluorophenyl)-N^6-(4,4-dimethyl-4,5-dihydrooxazol-2-yl)-quinazoline-4,6-diamine] | 125 |
| 140 | 43.5 | 2.2 | Cc1cc(Nc2ncnc3ccc(-c4ccco4)cc23)ccc1Oc1cc2nncn2cn1 [Embodiment 21, N-(4-([1,2,4]triazolo[4,3-c]pyrimidin-7-yloxy)-3-methylphenyl)-6-(furan-2-yl)-quinazolin-4-amine] | 73.8 |
| 40.7 | 18 | 4.1 | Cc1cc(Nc2ncnc3ccc(-c4ccc(CN5CCN(S(C)(=O)=O)CC5)o4)cc23)ccc1Oc1cc2nncn2cn1 [Embodiment 22, N-(4-([1,2,4]triazolo[4,3-c]pyrimidin-7-yloxy)-3-methylphenyl)-6-(5-((4-(methanesulfonyl)piperazin-1-yl)methyl)furan-2-yl)quinazolin-4-amine] | 35.6 |
| 79.5 | 0.7 | 5.2 | COc1cc2ncnc(Nc3ccc(Oc4cc5nncn5cn4)c(C)c3)c2cc1OC1CCN(C(=O)/C=C/CN(C)C)CC1 [Embodiment 23] | 55.7 |
| 128 | 127 | 4.1 | Cc1cc(Nc2ncnc3ccc(NC4=NCC(C)O4)cc23)ccc1Oc1cc2nncn2cn1 (stereo not shown) [Embodiment 24, N^4-(4-([1,2,4]triazolo[4,3-c]pyrimidin-7-yloxy)-3-methylphenyl)-N^6-(5-methyl-4,5-dihydrooxazol-2-yl)quinazoline-4,6-diamine] | 177 |
| 984 | 499 | 53.3 | Cc1cc(Nc2ncnc3ccc(NC4=NCC5(CCN(C(=O)OC(C)(C)C)CC5)O4)cc23)ccc1Oc1cc2nncn2cn1 [Embodiment 25, tert-butyl 2-((4-((4-([1,2,4]triazolo[4,3-c]pyrimidin-7-yloxy)-3-methylphenyl)amino)quinazolin-6-yl)amino)-1-oxa-3,8-diazaspiro[4.5]dec-2-en-8-carboxylate] | 464 |
| 122 | 96.8 | 3.8 | Cc1cc(Nc2ncnc3ccc(NC4=NC5(CO4)CN(C(=O)OC(C)(C)C)C5)cc23)ccc1Oc1cc2nncn2cn1 [Embodiment 26] | 130 |
| 112 | 8.1 | 1.92 | Cc1cc(Nc2ncnc3ccc(NC4=NC5(CO4)CC(O)C5)cc23)ccc1Oc1cc2nncn2cn1 (stereo not shown) [Embodiment 27, 6-((4-((4-([1,2,4]triazolo[4,3-c]pyrimidin-7-yloxy)-3-methylphenyl)amino)quinazolin-6-yl)amino)-7-oxa-5-azaspiro[3,4]oct-5-en-2-ol] | 543 |
| 141 | 17.3 | 4.9 | Cc1cc(Nc2ncnc3ccc(NC4=NC5(CO4)CN(C)C5)cc23)ccc1Oc1cc2nncn2cn1 [Embodiment 30, N^4-(4-([1,2,4]triazolo[4,3-c]pyrimidin-7-yloxy)-3-methylphenyl)-N^6-(2-methyl-7-oxa-2,5-diazaspiro[3.4]oct-5-en-6-yl)quinazoline-4,6-diamine] | 771 |
